# Experimental data taken from PMC11931604 (Drug Development Research, 2025).
# Biological target: D112_2N-mutant H3 HA (A/X-31) (Influenza A virus, UniProt P03438, D457N)
# Assay type: cell-based, influenza A/H3N2 virus
compound,measurement,value
"CC1CCC2(CC1)SC(C)C(=O)N2NC(=O)c1ccc(C(C)(C)C)cc1 (stereo not shown) [Compound 2c, 4‐(tert‐Butyl)‐N‐(2,8‐dimethyl‐3‐oxo‐1‐thia‐4‐azaspiro[4.5]decan‐4‐yl)benzamide]",inhibition of membrane fusion in cells expressing D112_2N-substituted HA,no inhibition
